One assay deals with Osteoblast. The experiment in a line: Osteogenic activity in neonatal Sprague-Dawley rat osteoblasts assessed as stimulation of alkaline phosphatase activity at 100 pM to 10 nM. It is filed as functional, cell-based.
The next assay concerns Calvarial cell. Kind of assay: Osteogenic activity in neonatal Sprague-Dawley rat calvarial cell culture assessed as stimulation of differentiation. It is filed as functional, cell-based.

SMILES strings stand for the structures. Active and inactive are the calls of the source. The rule behind the calls is not given here.

With `O=C1c2c(cc(O)c([C@@H]3O[C@H](CO)[C@@H](O)[C@H](O)[C@H]3O)c2O)O[C@@H](c2ccc(O)c(O)c2)[C@@H]1O`, the outcome in the assay with Osteoblast and with Calvarial cell was Active.
As to `O=C1C[C@H](c2ccc(O)cc2)Oc2cc(O)c([C@@H]3O[C@H](CO)[C@@H](O)[C@H](O)[C@H]3O)c(O)c21`, the outcome in the assay on Osteoblast and with Calvarial cell was Active.
Consider `O=c1c(O)c(-c2ccc(O)c(O)c2)oc2cc(O)c([C@@H]3O[C@H](CO)[C@@H](O)[C@H](O)[C@H]3O)c(O)c12`, for which the outcome in the assay with Osteoblast and with Calvarial cell was Active.
Consider `O=C1c2c(cc(O)c([C@@H]3O[C@H](CO)[C@@H](O)[C@H](O)[C@H]3O)c2O)O[C@@H](c2ccc(O)cc2)[C@@H]1O`, for which the result with Osteoblast and with Calvarial cell was Active.

The record behind these values is ChEMBL document CHEMBL1153462, “Ulmosides A and B: flavonoid 6-C-glycosides from Ulmus wallichiana, stimulating osteoblast differentiation assessed by alkaline phosphatase” (Bioorg Med Chem Lett, 2009).
